# Reference: patent US20100331305A1, “OXO-HETEROCYCLE FUSED PYRIMIDINE COMPOUNDS, COMPOSITIONS AND METHODS OF USE” (Genentech, Inc., priority 2009, published 2010)
# Legend:
# [1] = target: mTOR enzyme (mTOR(1360-2549)+GBL) (Homo sapiens, UniProt P42345); assay: In vitro mTOR kinase assay (TR-FRET); type: biochemical; settings: 0.25 nM mTOR+GBL, 8 uM ATP; values tied to compounds by order of Table 1; 'x or y' = two alternative values for separated diastereomers of unassigned stereochemistry; read-out: activity level (Ki) in the mTOR kinase assay
# Description: a. In Vitro mTOR Kinase Assay
# The reaction is stopped by an addition of a Terbium-labeled phospho-specific antibody, e.g., Tb-labeled anti-p4E-BP1 T37/T46, (Invitrogen, product #PR8835A), EDTA, and TR-FRET buffer solution (Invitrogen, Product #PR3756B). Product formation is detected by way of time-resolved fluorescence resonance energy transfer (TR-FRET), which occurs when the phosphorylated substrate and labeled antibody are in close proximity due to phospho-specific binding. Enzymatic activity is measured as an increase in TR-FRET signal using a Perkin Elmer Envision plate reader.
# Compound activity is tested in 10 point dose curves starting at the highest final concentration of 10 uM. They are serially diluted in 100% DMSO prior to further dilution with assay buffer. […] 8 μL of solution containing 2 nM Tb-anti-p4E-BP1 antibody & 10 mM EDTA diluted TR-FRET buffer is then added and incubated for 30 minutes to stop the reaction. The plate is scanned with the Envision plate reader. Ki values are calculated in Assay Explorer using the Morrison ATP-competitive tight binding equation for Ki apparent determination.
# [2] = test system: PC3 cells; assay: In vitro cell proliferation assay; type: cell-based, human; settings: values tied to compounds by order of Table 1
# Method: c. In Vitro Cell Proliferation Assay Efficacy of Formula I compounds were measured by a cell proliferation assay employing the following protocol: 1. An aliquot of 20 μl of cell culture containing about 10^3 cells (PC3 or MDAMB361.1) in medium was deposited in each well of a 384-well, opaque-walled plate. 2. Control wells were prepared containing medium and without cells; Cells were allowed to settle overnight. 3. The compound was added to the experimental wells and incubated for 3 days. 4. The plates were equilibrated to room temperature for approximately 30 minutes. 5. A volume of CellTiter-Glo Reagent equal to the volume of cell culture medium present in each well was added. […] The contents were mixed for 2 minutes on an orbital shaker to induce cell lysis. 7. The plate was incubated at room temperature for 20 minutes to stabilize the luminescence signal. 8. Luminescence was recorded and reported in graphs as RLU=relative luminescence units. Alternatively, cells were seeded at optimal density in a 96 well plate and incubated for 4 days in the presence of test compound. Alamar BlueTM was subsequently added to the assay medium, and cells were incubated for 6 h before reading at 544 nm excitation, 590 nm emission. EC50 values were calculated using a sigmoidal dose response curve fit.
# [3] = Homo sapiens, PC-3, with PC3 cells
# Chain of mTOR enzyme (mTOR(1360-2549)+GBL) (P42345 1360-2549, species assumed): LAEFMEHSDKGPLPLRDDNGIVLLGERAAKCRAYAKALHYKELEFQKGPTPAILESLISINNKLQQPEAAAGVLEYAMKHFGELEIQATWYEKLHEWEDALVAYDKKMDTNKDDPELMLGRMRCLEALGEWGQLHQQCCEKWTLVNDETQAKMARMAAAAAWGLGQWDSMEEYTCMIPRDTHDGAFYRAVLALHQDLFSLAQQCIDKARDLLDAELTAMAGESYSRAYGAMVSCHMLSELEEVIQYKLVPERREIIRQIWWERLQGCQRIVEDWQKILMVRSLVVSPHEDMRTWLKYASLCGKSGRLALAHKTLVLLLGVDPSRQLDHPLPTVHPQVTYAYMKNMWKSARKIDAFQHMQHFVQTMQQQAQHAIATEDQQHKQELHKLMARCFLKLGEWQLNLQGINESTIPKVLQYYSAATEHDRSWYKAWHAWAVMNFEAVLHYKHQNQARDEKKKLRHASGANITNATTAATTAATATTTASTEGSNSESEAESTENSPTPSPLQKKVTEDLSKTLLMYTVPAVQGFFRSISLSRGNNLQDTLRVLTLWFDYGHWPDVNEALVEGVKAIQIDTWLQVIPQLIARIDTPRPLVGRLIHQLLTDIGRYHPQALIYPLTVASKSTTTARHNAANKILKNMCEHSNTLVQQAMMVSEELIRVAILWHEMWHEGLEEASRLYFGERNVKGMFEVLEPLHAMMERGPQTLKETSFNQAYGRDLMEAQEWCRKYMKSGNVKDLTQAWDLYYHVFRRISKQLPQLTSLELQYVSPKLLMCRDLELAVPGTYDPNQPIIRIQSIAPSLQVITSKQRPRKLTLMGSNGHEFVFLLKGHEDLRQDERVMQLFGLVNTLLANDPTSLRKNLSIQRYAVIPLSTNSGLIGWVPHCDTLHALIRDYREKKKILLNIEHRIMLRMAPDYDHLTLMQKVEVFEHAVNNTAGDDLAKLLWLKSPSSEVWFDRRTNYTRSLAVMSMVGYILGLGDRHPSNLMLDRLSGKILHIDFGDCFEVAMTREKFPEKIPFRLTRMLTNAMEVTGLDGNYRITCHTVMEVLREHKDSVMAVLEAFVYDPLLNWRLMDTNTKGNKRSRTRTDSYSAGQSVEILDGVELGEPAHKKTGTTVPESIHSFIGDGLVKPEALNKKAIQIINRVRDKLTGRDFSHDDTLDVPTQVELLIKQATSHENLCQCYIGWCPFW
# Chain of mTOR enzyme (mTOR(1360-2549)+GBL) (Q9BVC4 whole entry partner, species assumed): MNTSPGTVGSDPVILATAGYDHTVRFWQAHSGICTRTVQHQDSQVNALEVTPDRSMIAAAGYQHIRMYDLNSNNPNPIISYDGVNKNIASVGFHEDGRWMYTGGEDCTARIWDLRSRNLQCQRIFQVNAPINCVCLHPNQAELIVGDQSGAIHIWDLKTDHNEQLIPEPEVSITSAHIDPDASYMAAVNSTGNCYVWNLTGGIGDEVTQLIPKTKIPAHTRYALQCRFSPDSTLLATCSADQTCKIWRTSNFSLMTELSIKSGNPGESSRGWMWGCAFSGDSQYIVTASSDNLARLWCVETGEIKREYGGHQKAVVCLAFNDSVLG
SMILES,Ki [1],"EC50 [2, 3]",EC50 ([2]; with PC3 cells)
"CCNC(=O)Nc1ccc(-c2nc3c(c(N4CCOC[C@@H]4C)n2)COC(COCc2ccccc2)C3)cc1 (stereo partly drawn) [1-(4-(7-(benzyloxymethyl)-4-((S)-3-methylmorpholino)-7,8-dihydro-5H-pyrano[4,3-d]pyrimidin-2-yl)phenyl)-3-ethylurea]",16 nM,585 nM,
"C[C@H]1COCCN1c1nc(-c2ccc(NC(=O)NCCS(C)(=O)=O)cc2)nc2c1CCC1(CC1)O2 [Example 57, (S)-1-(4-(4′-(3-methylmorpholino)-5′,6′-dihydrospiro[cyclopropane-1,7′-pyrano[2,3-d]pyrimidine]-2′-yl)phenyl)-3-(2-(methylsulfonyl)ethyl)urea]",5 nM,595 nM,
"CNc1nc2cc(-c3nc(N4CCOC[C@@H]4C)c4c(n3)C(C)(C)OC4)ccc2[nH]1 [Example 125, (S)-5-(7,7-dimethyl-4-(3-methylmorpholino)-5,7-dihydrofuro[3,4-d]pyrimidin-2-yl)-N-methyl-1H-benzo[d]imidazol-2-amine]",10 nM,562 nM,
"C[C@H]1COCCN1c1nc(-c2ccc(Nc3nccc(=O)[nH]3)cc2)nc2c1CCC1(CC1)O2 [Example 55, (S)-2-(4-(4′-(3-methylmorpholino)-5′,6′-dihydrospiro[cyclopropane-1,7′-pyrano[2,3-d]pyrimidine]-2′-yl)phenylamino)pyrimidin-4(3H)-one]",0.2 nM,15 nM,
"CCNC(=O)Nc1ccc(-c2nc(N3CCOC[C@@H]3C)c3c(n2)[C@](C)(CC(C)O)OC3)cc1 (stereo partly drawn) [1-ethyl-3-(4-((7S)-7-(2-hydroxypropyl)-7-methyl-4-((S)-3-methylmorpholino)-5,7-dihydrofuro[3,4-d]pyrimidin-2-yl)phenyl)urea]",2 nM,25 nM,
"CCNC(=O)Nc1ccc(-c2nc(N3CCOC[C@@H]3C)c3c(n2)[C@](C)(CCN(C)CC)OC3)cc1 [Example 78 eq (S), 1-ethyl-3-(4-((S)-7-(2-(ethyl(methyl)amino)ethyl)-7-methyl-4-((S)-3-methylmorpholino)-5,7-dihydrofuro[3,4-d]pyrimidin-2-yl)phenyl)urea]",21 nM,,1300 nM
"C[C@H]1COCCN1c1nc(-c2ccc(NC(=O)NC[C@H](O)CO)cc2)nc2c1CCC1(CC1)O2 [Example 68, 1-((S)-2,3-dihydroxypropyl)-3-(4-(4′-((S)-3-methylmorpholino)-5′,6′-dihydrospiro[cyclopropane-1,7′-pyrano[2,3-d]pyrimidine]-2′-yl)phenyl)urea]",3 nM,804 nM,
"Cn1cc(NC(=O)Nc2ccc(-c3nc4c(c(N5CCOCC5)n3)CCC3(CC3)O4)cc2)cn1 [Example 45, 1-(1-methyl-1H-pyrazol-4-yl)-3-(4-(4′-morpholino-5′,6′-dihydrospiro[cyclopropane-1,7′-pyrano[2,3-d]pyrimidine]-2′-yl)phenyl)urea]",2 nM,102 nM,
"C[C@H]1COCCN1c1nc(-c2ccc(NC(=O)NC3COC3)cc2)nc2c1CCC1(CC1)O2 [Example 51, (S)-1-(4-(4′-(3-methylmorpholino)-5′,6′-dihydrospiro[cyclopropane-1,7′-pyrano[2,3-d]pyrimidine]-2′-yl)phenyl)-3-(oxetan-3-yl)urea]",1 nM,77 nM,
"C[C@H]1COCCN1c1nc(-c2ccc(NC(=O)NC[C@@H](O)CO)cc2)nc2c1CCC1(CC1)O2 [Example 69, 1-((R)-2,3-dihydroxypropyl)-3-(4-(4′-((S)-3-methylmorpholino)-5′,6′-dihydrospiro[cyclopropane-1,7′-pyrano[2,3-d]pyrimidine]-2′-yl)phenyl)urea]",2 nM,1200 nM,
"CC1(C)OCc2c(N3CCOCC3)nc(-c3ccc4oc(N)nc4c3)nc21 [Example 114, 5-(7,7-dimethyl-4-morpholino-5,7-dihydrofuro[3,4-d]pyrimidin-2-yl)benzo[d]oxazol-2-amine]",124 nM,2500 nM,
